According to patent US8377884B2, “Variants of C-type natriuretic peptides” (Biomarin Pharmaceutical Inc., priority 2007, dated 2013):
Read-outs that look alike come from different tables or passages of the source. Bridge positions count the residues as written; N and C are the ends. Square brackets hold non-standard residues; d marks the D form. Ends that are not written are not given here. Peptide text beside a SMILES is read from it. PEO12 = monodispersed PEO, 0.6 kDa; tBuAla = CC(C)(C)C[C@H](N)C(=O)O; Cit = NC(=O)NCCC[C@H](N)C(=O)O

Target: T1, NPR-B (Mus musculus, UniProt Q6VVW5)
T1 construct: Murine NIH3T3 cells express endogenously the CNP signaling receptor, NPR-B; endogenous in cells; host or cells: NIH3T3 (murine fibroblasts)
T1 sequence (Q6VVW5 17-1047): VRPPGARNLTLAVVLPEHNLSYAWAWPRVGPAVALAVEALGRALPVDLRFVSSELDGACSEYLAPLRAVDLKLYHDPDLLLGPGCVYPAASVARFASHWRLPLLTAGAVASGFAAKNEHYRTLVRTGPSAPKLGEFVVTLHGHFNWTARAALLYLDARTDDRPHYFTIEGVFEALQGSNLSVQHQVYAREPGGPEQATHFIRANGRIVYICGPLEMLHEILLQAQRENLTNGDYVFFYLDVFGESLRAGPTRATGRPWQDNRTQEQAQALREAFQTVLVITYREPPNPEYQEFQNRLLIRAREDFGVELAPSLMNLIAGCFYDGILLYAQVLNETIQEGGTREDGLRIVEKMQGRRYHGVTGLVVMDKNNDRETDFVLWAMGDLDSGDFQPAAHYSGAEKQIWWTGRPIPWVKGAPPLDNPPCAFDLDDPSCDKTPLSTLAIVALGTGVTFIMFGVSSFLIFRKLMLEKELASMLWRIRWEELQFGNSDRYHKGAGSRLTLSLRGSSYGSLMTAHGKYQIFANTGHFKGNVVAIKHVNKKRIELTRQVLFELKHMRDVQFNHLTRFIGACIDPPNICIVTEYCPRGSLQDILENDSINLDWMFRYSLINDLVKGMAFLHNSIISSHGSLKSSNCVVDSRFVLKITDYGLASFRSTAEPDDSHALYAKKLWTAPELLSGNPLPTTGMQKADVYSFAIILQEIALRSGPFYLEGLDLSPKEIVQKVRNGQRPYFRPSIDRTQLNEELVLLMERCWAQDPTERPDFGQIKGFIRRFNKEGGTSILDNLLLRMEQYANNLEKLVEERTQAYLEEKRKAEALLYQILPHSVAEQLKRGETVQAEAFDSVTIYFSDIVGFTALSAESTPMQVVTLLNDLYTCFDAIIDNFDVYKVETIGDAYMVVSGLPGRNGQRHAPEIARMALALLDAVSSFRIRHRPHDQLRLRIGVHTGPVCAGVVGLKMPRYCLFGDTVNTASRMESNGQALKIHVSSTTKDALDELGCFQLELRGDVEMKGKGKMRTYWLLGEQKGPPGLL
Assay: Stimulation of cGMP production in NIH3T3 cells
Type: cell-based, Murine
Conditions: for cGMP response relative to 1 uM CNP22 (%) at 0.01 µM: read-out: cGMP Response rel. to 1 uM CNP22, 10 nM; for cGMP response relative to 1 uM CNP22 (%) at 1 µM: read-out: cGMP Response rel. to 1 uM CNP22, 1 uM

[1] = NIH3T3 cells, 10 nM natriuretic peptide, normalized to cell number and cGMP production with 1 uM wtCNP22
[2] = NIH3T3 cells, 1 uM natriuretic peptide, normalized to cell number and cGMP production with 1 uM wtCNP22

| Molecule | cGMP response relative to 1 uM CNP22 (%) at 0.01 µM [1] [%] | cGMP response relative to 1 uM CNP22 (%) at 1 µM [2] [%] | also measured |
| --- | --- | --- | --- |
| CC[C@H](C)[C@@H]1NC(=O)[C@H](CCCNC(=N)N)NC(=O)[C@H](CC(=O)O)NC(=O)[C@H](CC(C)C)NC(=O)[C@H](CCCCN)NC(=O)[C@H](CC(C)C)NC(=O)CNC(=O)[C@H](Cc2ccccc2)NC(=O)[C@@H](NC(=O)CNC(=O)[C@H](CCCCN)NC(=O)[C@H](CO)NC(=O)[C@H](CC(C)C)NC(=O)CNC(=O)[C@H](CCC(N)=O)NC(=O)[C@H](CCC(N)=O)NC(=O)[C@H](CC(N)=O)NC(=O)[C@H](C)NC(=O)CNC(=O)[C@H](Cc2c[nH]cn2)NC(=O)[C@@H]2CCCN2C(=O)[C@H](Cc2c[nH]cn2)NC(=O)[C@H](CCC(N)=O)NC(=O)[C@H](CCC(=O)O)NC(=O)[C@H](Cc2c[nH]cn2)NC(=O)[C@H](CO)NC(=O)[C@H](Cc2c[nH]cn2)NC(=O)[C@H](Cc2c[nH]cn2)NC(=O)CN)CSSC[C@@H](C(=O)O)NC(=O)CNC(=O)[C@H](CC(C)C)NC(=O)CNC(=O)[C@H](CO)NC(=O)[C@H](CCSC)NC(=O)[C@H](CO)NC(=O)CNC1=O [CQ] (H-GHHSHEQHPHGANQQGLSKGCFGLKLDRIGSMSGLGC-OH; disulfide 21-37 (inferred); N-terminus and C-terminus assumed) | – | – | cGMP response relative to 1 uM CNP22 (%) at 0.01 µM (NIH3T3, […]): 16%; cGMP response relative to 1 uM CNP22 (%) at 1 µM (NIH3T3, […]): 95% |
| CC[C@H](C)[C@@H]1NC(=O)[C@H](CCCNC(=N)N)NC(=O)[C@H](CC(=O)O)NC(=O)[C@H](CC(C)C)NC(=O)[C@H](CCCCN)NC(=O)[C@H](CC(C)C)NC(=O)CNC(=O)[C@H](Cc2ccccc2)NC(=O)[C@@H](NC(=O)CNC(=O)[C@H](CCCNC(=N)N)NC(=O)[C@H](CO)NC(=O)[C@H](CC(C)C)NC(=O)CNC(=O)[C@H](CCC(N)=O)NC(=O)[C@H](CCC(N)=O)NC(=O)[C@H](CC(N)=O)NC(=O)[C@H](C)NC(=O)CN)CSSC[C@@H](C(=O)O)NC(=O)CNC(=O)[C@H](CC(C)C)NC(=O)CNC(=O)[C@H](CO)NC(=O)[C@H](CCSC)NC(=O)[C@H](CO)NC(=O)CNC1=O [CH] (H-GANQQGLSRGCFGLKLDRIGSMSGLGC-OH; disulfide 11-27 (inferred); N-terminus and C-terminus assumed) | 44 ± 8 | 95 ± 11 | – |
| CC[C@H](C)[C@@H]1NC(=O)[C@H](CCCNC(=N)N)NC(=O)[C@H](CC(=O)O)NC(=O)[C@H](CC(C)C)NC(=O)[C@H](CCCCN)NC(=O)[C@H](CC(C)C)NC(=O)CNC(=O)[C@H](Cc2ccccc2)NC(=O)[C@@H](NC(=O)CNC(=O)[C@H](CCCNC(=N)N)NC(=O)[C@H](CO)NC(=O)[C@H](CC(C)C)NC(=O)CN)CSSC[C@@H](C(=O)O)NC(=O)CNC(=O)[C@H](CC(C)C)NC(=O)CNC(=O)[C@H](CO)NC(=O)[C@H](CCSC)NC(=O)[C@H](CO)NC(=O)[C@H](CCCNC(N)=O)NC1=O [AF] (H-GLSRGCFGLKLDRI[Cit]SMSGLGC-OH; disulfide 6-22 (inferred); N-terminus and C-terminus assumed) | – | – | cGMP response relative to 1 uM CNP22 (%) at 0.01 µM (NIH3T3, […]): 1.4%; cGMP response relative to 1 uM CNP22 (%) at 1 µM (NIH3T3, […]): 2% |
| CC[C@H](C)[C@@H]1NC(=O)[C@H](CCCNC(=N)N)NC(=O)[C@H](CC(=O)O)NC(=O)[C@H](CC(C)C)NC(=O)[C@H](CCCCN)NC(=O)[C@H]([C@@H](C)O)NC(=O)CNC(=O)[C@H](Cc2ccccc2)NC(=O)[C@@H](NC(=O)CNC(=O)[C@H](CCCNC(=N)N)NC(=O)[C@H](CO)NC(=O)[C@H](CC(C)C)NC(=O)CN)CSSC[C@@H](C(=O)O)NC(=O)CNC(=O)[C@H](CC(C)C)NC(=O)CNC(=O)[C@H](CO)NC(=O)[C@H](CCSC)NC(=O)[C@H](CO)NC(=O)CNC1=O [AD] (H-GLSRGCFGTKLDRIGSMSGLGC-OH; disulfide 6-22) | 4 | 68 | – |
| PEO12-CNP22, K4R: CNP22, K4R conjugated at the N-terminus to PEO12 (PEO12-GLSRGCFGLKLDRIGSMSGLGC; disulfide 6-22 (inferred); UniProt P23582 105-126, looked up, variant K4R) | – | – | cGMP Response rel. to 1 uM CNP22, 10 nM [1]: 13; cGMP Response rel. to 1 uM CNP22, 1 uM [2]: 44 |

More lines, main results first:

| cGMP response relative to 1 uM CNP22 (%) at 0.01 µM [1] [%] | cGMP response relative to 1 uM CNP22 (%) at 1 µM [2] [%] | Molecule | also measured |
| --- | --- | --- | --- |
| 18 | 69 | CC[C@H](C)[C@@H]1NC(=O)[C@H](CCCNC(=N)N)NC(=O)[C@H](CC(=O)O)NC(=O)[C@H](CC(C)C)NC(=O)[C@H](CCCCN)NC(=O)[C@H](CC(C)C)NC(=O)CNC(=O)[C@H](Cc2ccccc2)NC(=O)[C@@H](N)CSSC[C@@H](C(=O)O)NC(=O)CNC(=O)[C@H](CC(C)C)NC(=O)CNC(=O)[C@H](CO)NC(=O)[C@H](CCSC)NC(=O)[C@H](CO)NC(=O)CNC1=O [AX] (H-CFGLKLDRIGSMSGLGC-OH; disulfide 1-17 (inferred); N-terminus and C-terminus assumed) | – |
| 12 | 80 | CC[C@H](C)[C@@H]1NC(=O)[C@H](CCCNC(=N)N)NC(=O)[C@H](CC(=O)O)NC(=O)[C@H](CC(C)C)NC(=O)[C@H](CCCNC(=N)N)NC(=O)[C@H](CC(C)C)NC(=O)CNC(=O)[C@H](Cc2ccccc2)NC(=O)[C@@H](NC(=O)CNC(=O)[C@H](CCCNC(=N)N)NC(=O)[C@H](CO)NC(=O)[C@H](CC(C)C)NC(=O)CN)CSSC[C@@H](C(=O)O)NC(=O)CNC(=O)[C@H](CC(C)C)NC(=O)CNC(=O)[C@H](CO)NC(=O)[C@H](CCSC)NC(=O)[C@H](CO)NC(=O)CNC1=O [BH] (H-GLSRGCFGLRLDRIGSMSGLGC-OH; disulfide 6-22) | – |
| 0.2 | 8 | CC[C@H](C)[C@@H]1NC(=O)[C@H](CCCNC(=N)N)NC(=O)[C@H](CC(=O)O)NC(=O)[C@H](CC(C)C)NC(=O)[C@H](CCCCN)NC(=O)[C@H](CC(C)C)NC(=O)CNC(=O)[C@H](Cc2ccccc2)NC(=O)[C@@H](NC(=O)CNC(=O)[C@H](CCCNC(=N)N)NC(=O)[C@H](CO)NC(=O)[C@H](CC(C)C)NC(=O)CN)CSSC[C@@H](C(=O)O)NC(=O)CNC(=O)[C@H](C(C)C)NC(=O)CNC(=O)[C@H](CO)NC(=O)[C@H](CCSC)NC(=O)[C@H](CO)NC(=O)CNC1=O [AJ] (H-GLSRGCFGLKLDRIGSMSGVGC-OH; disulfide 6-22 (inferred); N-terminus and C-terminus assumed) | – |
| 60 | 121 | CC[C@H](C)[C@@H]1NC(=O)[C@H](CCCNC(=N)N)NC(=O)[C@H](CC(=O)O)NC(=O)[C@H](CC(C)C)NC(=O)[C@H](CCCCN)NC(=O)[C@H](CC(C)C)NC(=O)CNC(=O)[C@H](Cc2ccccc2)NC(=O)[C@@H](NC(=O)CNC(=O)[C@H](CCCCN)NC(=O)[C@H](CO)NC(=O)[C@H](CC(C)C)NC(=O)CNC(=O)[C@H](CCCCN)NC(=O)[C@H](CCC(N)=O)NC(=O)[C@H](CC(N)=O)NC(=O)[C@H](C)NC(=O)CNC(=O)[C@H](CCCCN)NC(=O)[C@H](Cc2ccc(O)cc2)NC(=O)[C@H](CCCCN)NC(=O)[C@H](CCCNC(=N)N)NC(=O)[C@H](C)NC(=O)[C@H](CC(N)=O)NC(=O)[C@@H]2CCCN2C(=O)[C@H](Cc2c[nH]cn2)NC(=O)[C@H](CCC(=O)O)NC(=O)[C@H](CCC(N)=O)NC(=O)CN)CSSC[C@@H](C(=O)O)NC(=O)CNC(=O)[C@H](CC(C)C)NC(=O)CNC(=O)[C@H](CO)NC(=O)[C@H](CCSC)NC(=O)[C@H](CO)NC(=O)CNC1=O [CT] (H-GQEHPNARKYKGANQKGLSKGCFGLKLDRIGSMSGLGC-OH; disulfide 22-38 (inferred); N-terminus and C-terminus assumed) | – |
| 1 | 21 | CC[C@H](C)[C@@H]1NC(=O)[C@H](CCCNC(=N)N)NC(=O)[C@H](CC(=O)O)NC(=O)[C@H](CC(C)C)NC(=O)[C@H](CCCCN)NC(=O)[C@H](CC(C)C)NC(=O)CNC(=O)[C@H](Cc2ccccc2)NC(=O)[C@@H](NC(=O)CNC(=O)[C@H](CCCNC(=N)N)NC(=O)[C@H](CO)NC(=O)[C@H](CC(C)C)NC(=O)CN)CSSC[C@@H](C(=O)O)NC(=O)CNC(=O)[C@H](CC(C)(C)C)NC(=O)CNC(=O)[C@H](CO)NC(=O)[C@H](CCSC)NC(=O)[C@H](CO)NC(=O)CNC1=O [AK] (H-GLSRGCFGLKLDRIGSMSG[tBuAla]GC-OH; disulfide 6-22 (inferred); N-terminus and C-terminus assumed) | – |
